System: CII induced rheumatoid arthritis in DBA mice
Assay: Collagen type II induced model of rheumatoid arthritis
Details: mice in vivo; example 17 up to 40 mg/kg/day; methotrexate 10 mg/kg/day, 3 times a week
Text: Collagen type II (hereinafter referred as CII) induced experimental model of rheumatoid arthritis (hereinafter referred as RA) in DBA mice is widely accepted as the most relevant and predictive preclinical model for RA. In this model, DBA mice are immunized with CII, the collagen type mainly present in the joint structures, together with complete Freund Adjuvant in their tail. 2 to 3 weeks later, several of the immunized mice start to develop arthritis in the four footpaths. In order to further worsen the disease, mice are given a second CII boost at three weeks after the first immunisation, this time however in a footpath. Because the immune system is already immunised in these mice, this rapidly provokes a severe swelling of the injected footpath (named Delayed Type Hypersensitivity or DTH) which can be used as a measurement for T-cell activation. Within a few days after the booster, almost all untreated animals start developing symptoms of arthritis. RA development is scored from 0 to 16 (16 being severe clinical arthritis in all four footpaths). At the end of the study (3 weeks after the CII boost) antibody formation was determined against CII and histology performed on the footpaths.
The efficiency of the pteridine derivative of example 17 (administered in an amount of 20 mg/kg/day, started one day before the CII boost) was explored in this CII-model.

In the case of `CN(Cc1cnc2nc(N)nc(N)c2n1)c1ccc(C(=O)N[C@@H](CCC(=O)O)C(=O)O)cc1` [methotrexate, reference compound], the “mortality or cytotoxic effect on increasing the dose” value was “death of all animals”.

From US20070032477A1, “Pteridine derivatives useful for making pharmaceutical compositions” (priority 2003, published 2007)
